For test [1], the target named is T1, endogenous cellular BACE2 (Rattus norvegicus, UniProt Q6IE75).
T1 construct: endogenous cellular BACE2 in the Ins1e rat cell line; endogenous in cells; host or cells: INS-TMEM27 (INS1e-derived rat insulinoma cell line with doxycycline-inducible full-length human TMEM27)
T1 sequence (Q6IE75 63-514): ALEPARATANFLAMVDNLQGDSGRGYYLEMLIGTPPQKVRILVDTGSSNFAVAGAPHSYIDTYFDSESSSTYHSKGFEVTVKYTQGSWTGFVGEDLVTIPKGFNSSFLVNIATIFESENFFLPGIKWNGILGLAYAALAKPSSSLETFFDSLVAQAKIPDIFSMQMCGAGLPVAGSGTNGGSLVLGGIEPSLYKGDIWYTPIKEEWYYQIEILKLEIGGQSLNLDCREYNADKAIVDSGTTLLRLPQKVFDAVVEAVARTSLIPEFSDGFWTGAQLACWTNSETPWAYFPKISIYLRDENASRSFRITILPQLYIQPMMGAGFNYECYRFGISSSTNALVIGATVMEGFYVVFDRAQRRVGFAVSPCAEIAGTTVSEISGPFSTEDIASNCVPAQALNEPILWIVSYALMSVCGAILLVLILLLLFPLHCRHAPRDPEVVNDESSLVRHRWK
Nature of the test: Assay for BACE inhibition by measuring cellular TMEM27 cleavage. The test is classed as cell-based. The note with it: INS-TMEM27 (INS1e-derived) cells, shed human TMEM27 in supernatant by ELISA. The source says: Assay for BACE Inhibition by Measuring Cellular TMEM27 Cleavage:
The assay uses the principle of inhibition of human TMEM27 cleavage by endogenous cellular BACE2 in the Ins1e rat cell line and shedding from the cell surface into the culture medium, followed by detection in an ELISA assay. Inhibition of BACE2 prevents the cleavage and shedding in a dose-dependent manner.
The stable cell line “INS-TMEM27” represents an INS1e-derived cell line with inducible expression (using the TetOn system) of full-length hTMEM27 in a doxycycline-dependent manner. The cells are cultured throughout the experiment in RPMI1640+ Glutamax (Invitrogen) Penicillin/Streptomycin, 10% Fetal bovine serum, […], […], 100 micrograms/ml G418 and 100 microgram/ml hygromycin and are grown inadherent culture at 37° C. in a standard CO2 cell culture incubator.
INS-TMEM27 cells are seeded in 96-well plates. After 2 days in culture, BACE2 inhibitor is added in a range of concentrations as required by the assay and after a further two hours, doxycycline is added to a final concentration of 500 ng/ml. The cells are incubated for a further 46 hours and the supernatant harvested for detection of shed TMEM27.
An ELISA assay (using a pair of mouse anti-human-TMEM27 antibodies, raised against the extracellular domain of TMEM27) is used for detection of TMEM27 in the culture medium. An EC50 for BACE2 inhibition is calculated using the ELISA readout for each inhibitor concentration with standard curve-fitting software such as XLFit for the Excel spreadsheet program.
Background: An ELISA detects its analyte on a solid surface through an enzyme-linked reagent.

Another test relates to Aβ40. As to the kind of experiment: Cellular Aβ-lowering assay. Type of test: cell-based. Particulars: HEK293 cells stably expressing human APP695, Aβ40 in supernatant by ELISA after 18-20 hrs; read-out: Cellular assay Abeta40 IC50. On the procedure:
Cellular Aβ-Lowering Assay:
Human HEK293 cells which are stably transfected with a vector expressing a cDNA of the human APP wt gene (APP695) were used to assess the potency of the compounds in a cellular assay. The cells were seeded in 96-well microtiter plates in cell culture medium (Iscove, plus 10% (v/v) fetal bovine serum, glutamine, penicillin/streptomycin) to about 80% confluence and the compounds were added at a 10× concentration in 1/10 volume of medium without FCS containing 8% DMSO (final concentration of DMSO was kept at 0.8% v/v). After 18-20 hrs incubation at 37° C. and 5% CO2 in a humidified incubator the culture supernatant was harvested for the determination of Aβ40 concentrations. 96well ELISA plates (e.g., Nunc MaxiSorb) were coated with monoclonal antibody which specifically recognize the C-terminal end of Aβ40 (Brockhaus et al., NeuroReport 9, 1481-1486; 1998). After blocking of non-specific binding sites with e.g. 1% BSA and washing, the culture supernatants were added in suitable dilutions together with a horseradish peroxidase-coupled Aβ detection antibody (e.g., antibody 4G8, Senetek, Maryland Heights, Mo.) and incubated for 5 to 7 hrs. Subsequently the wells of the microtiter plate were washed extensively with Tris-buffered saline containing 0.05% Tween 20 and the assay was developed with tetramethylbenzidine/H2O2 in citric acid buffer. After stopping the reaction with one volume 1 N H2SO4 the reaction was measured in an ELISA reader at 450 nm wavelength. The concentrations of Aβ in the culture supernatants were calculated from a standard curve obtained with known amounts of pure Aβ peptide.

pIC50: −log10 of the molar value. Where a name gives a salt, the structure may show the parent alone.

For orientation: pIC50 means −log10 of the IC50, conventionally taken in molar units. On to `C[C@]1(c2cc(NC(=O)C3CC3(F)F)ccc2F)N=C(N)COCC1(F)F` (stereo partly drawn) [Example 34, N-(3-((R)-3-amino-6,6-difluoro-5-methyl-2,5,6,7-tetrahydro-1,4-oxazepin-5-yl)-4-fluorophenyl)-2,2-difluorocyclopropanecarboxamide formate], for which the negative logarithm of the IC50 (pIC50) in test [1] was 6.42; in the test on Aβ40, 7.12.

Turning to `COC(C)C(=O)Nc1ccc(F)c([C@@]2(C)N=C(N)COCC2(F)F)c1` (stereo partly drawn) [Example 55, N-(3-((R)-3-amino-6,6-difluoro-5-methyl-2,5,6,7-tetrahydro-1,4-oxazepin-5-yl)-4-fluorophenyl)-2-methoxypropanamide formate], the pIC50 in test [1] is 6.72; with Aβ40, 6.85.

As for `CCc1n[nH]c(C(=O)Nc2ccc(F)c([C@@]3(C)N=C(N)COCC3(F)F)c2)c1C` [Example 107, (R)-N-(3-(3-Amino-6,6-difluoro-5-methyl-2,5,6,7-tetrahydro-1,4-oxazepin-5-yl)-4-fluorophenyl)-3-ethyl-4-methyl-1H-pyrazole-5-carboxamide], the values for the pIC50 (in test [1]; with Aβ40) were 6.05 and 6.10, respectively.

In the case of `CC[C@]1(c2cc(NC(=O)c3nc[nH]c3C)ccc2F)N=C(N)COCC1(F)F` [Example 100, (R)-N-(3-(3-Amino-5-ethyl-6,6-difluoro-2,5,6,7-tetrahydro-1,4-oxazepin-5-yl)-4-fluorophenyl)-5-methyl-1H-imidazole-4-carboxamide], the values for the negative-log IC50 (pIC50) (in test [1]; in the test on Aβ40) were 6.29 and 5.55, respectively.

As to `Cc1conc1C(=O)Nc1ccc(F)c([C@@]2(C)N=C(N)COCC2(F)F)c1` [Example 104, (R)-N(R)-N-(3-(3-Amino-6,6-difluoro-5-methyl-2,5,6,7-tetrahydro-1,4-oxazepin-5-yl)-4-fluorophenyl)-4-methylisoxazole-3-carboxamide], the pIC50 in test [1] was 7.02; in the test on Aβ40, 6.80.

For `C[C@]1(c2cc(NC(=O)c3ncc(F)cc3F)ccc2F)N=C(N)COCC1(F)F` [Example 32, (R)-N-(3-(3-amino-6,6-difluoro-5-methyl-2,5,6,7-tetrahydro-1,4-oxazepin-5-yl)-4-fluorophenyl)-3,5-difluoropicolinamide formate], the pIC50 in test [1] is 8.36; in the test on Aβ40, 8.35.

In the case of `C[C@]1(c2cc(NC(=O)c3ccc(OCC(F)(F)C(F)F)cn3)ccc2F)N=C(N)COCC1(F)F` [Example 54, (R)-N-(3-(3-amino-6,6-difluoro-5-methyl-2,5,6,7-tetrahydro-1,4-oxazepin-5-yl)-4-fluorophenyl)-5-(2,2,3,3-tetrafluoropropoxy)picolinamide formate], the pIC50 in test [1] is 6.24; with Aβ40 it was 7.54.

Consider `CC(C)Oc1ccc(C(=O)Nc2ccc(F)c([C@@]3(C)N=C(N)COCC3(F)F)c2)nc1` [Example 67, (R)-N-(3-(3-Amino-6,6-difluoro-5-methyl-2,5,6,7-tetrahydro-1,4-oxazepin-5-yl)-4-fluorophenyl)-5-isopropoxypicolinamide formate], for which the pIC50 is 4.17 in test [1] and 6.54 with Aβ40.

As to `CCc1n[nH]c(C(=O)Nc2ccc(F)c([C@@]3(CC)N=C(N)COCC3(F)F)c2)c1C` [Example 93, (R)-N-(3-(3-Amino-5-ethyl-6,6-difluoro-2,5,6,7-tetrahydro-1,4-oxazepin-5-yl)-4-fluorophenyl)-3-ethyl-4-methyl-1H-pyrazole-5-carboxamide], the pIC50 in test [1] was 3.81; in the test on Aβ40, 6.29.

Turning to `CC[C@]1(c2cc(NC3CCCC3)ccc2F)N=C(N)COCC1(F)F` [Example 119, (R)-5-(5-(Cyclopentylamino)-2-fluorophenyl)-5-ethyl-6,6-difluoro-2,5,6,7-tetrahydro-1,4-oxazepin-3-amine], the pIC50 in test [1] was 8.04; in the test with Aβ40, 9.10.

For `C[C@@]1(c2cc(NC(=O)c3ccc(F)cn3)ccc2F)CCOCC(N)=N1` [Example 9], the figures for the pIC50 (in test [1]; with Aβ40) were 8.00 and 8.80, respectively.

Turning to `C[C@]1(c2cc(NC(=O)c3cc(Cl)c(Cl)s3)ccc2F)N=C(N)COCC1(F)F` [Example 72, (R)-N-(3-(3-Amino-6,6-difluoro-5-methyl-2,5,6,7-tetrahydro-1,4-oxazepin-5-yl)-4-fluorophenyl)-4,5-dichlorothiophene-2-carboxamide formate,], the pIC50 in test [1] is 5.61; in the test with Aβ40, 6.23.

As for `CC[C@]1(c2cc(NC(=O)c3cccnn3)ccc2F)N=C(N)COCC1(F)F` [Example 81, (R)-N-(3-(3-Amino-5-ethyl-6,6-difluoro-2,5,6,7-tetrahydro-1,4-oxazepin-5-yl)-4-fluorophenyl)pyridazine-3-carboxamide], the negative-log IC50 (pIC50) was 3.38 in test [1] and 5.25 in the test with Aβ40.

Take `C[C@]1(c2cc(NC(=O)c3ncccc3OCC(F)(F)F)ccc2F)N=C(N)COCC1(F)F` [Example 59, (R)-N-(3-(3-amino-6,6-difluoro-5-methyl-2,5,6,7-tetrahydro-1,4-oxazepin-5-yl)-4-fluorophenyl)-3-(2,2,2-trifluoroethoxy)picolinamide]: the pIC50 was 6.77 in test [1] and 6.80 in the test with Aβ40.

Take `C[C@]1(c2cc(NC(=O)c3n[nH]cc3Cl)ccc2F)N=C(N)COCC1(F)F` [Example 96, (R)-N-(3-(3-amino-6,6-difluoro-5-methyl-2,5,6,7-tetrahydro-1,4-oxazepin-5-yl)-4-fluorophenyl)-4-chloro-1H-pyrazole-3-carboxamide]: the pIC50 was 6.53 in test [1] and 7.24 in the test on Aβ40.

Regarding `CC[C@]1(c2cc(NC(=O)c3ccc(C#N)cn3)ccc2F)N=C(N)COCC1(F)F` [Example 79, (R)-N-(3-(3-Amino-5-ethyl-6,6-difluoro-2,5,6,7-tetrahydro-1,4-oxazepin-5-yl)-4-fluorophenyl)-5-cyanopicolinamide], the figures for the pIC50 (in test [1]; in the test on Aβ40) were 7.17 and 7.15, respectively.

Consider `Cn1cc(Cl)c(C(=O)Nc2ccc(F)c([C@@]3(C)N=C(N)COCC3(F)F)c2)n1` [Example 41, (R)-N-(3-(3-amino-6,6-difluoro-5-methyl-2,5,6,7-tetrahydro-1,4-oxazepin-5-yl)-4-fluorophenyl)-4-chloro-1-methyl-1H-pyrazole-3-carboxamide formate], for which the results for the pIC50 (in test [1]; in the test with Aβ40) were 8.52 and 8.14, respectively.

In the case of `C[C@@]1(c2cc(NC(=O)c3ccc(F)cn3)ccc2F)C[C@@H](c2ccccc2)OCC(N)=N1` [Example 68, 5-Fluoro-pyridine-2-carboxylic acid [3-((5S,7S)-3-amino-5-methyl-7-phenyl-2,5,6,7-tetrahydro-[1,4]oxazepin-5-yl)-4-fluoro-phenyl]-amide], the negative logarithm of the IC50 (pIC50) was 5.28 in test [1] and 5.41 with Aβ40.

Turning to `C[C@@]1(c2cc(NC(=O)c3ccc(Cl)cn3)ccc2F)C[C@@H](c2ccccc2)OCC(N)=N1` [Example 69], the pIC50 in the test with Aβ40 is 5.29.

`C[C@]1(c2cc(NC(=O)c3ccc(Cl)cn3)ccc2F)N=C(N)COCC1(F)F` [Example 26, (R)-N-(3-(3-amino-6,6-difluoro-5-methyl-2,5,6,7-tetrahydro-1,4-oxazepin-5-yl)-4-fluorophenyl)-5-chloropicolinamide]: the pIC50 in the test on Aβ40 was 8.89.

The values above are taken from patent US8673894B2 (Hoffmann-La Roche Inc., priority 2010, dated 2014).
